Active and inactive are the calls of the source.
What was measured:
[1] = test system: Escherichia coli; test: microbe, parasite or virus in culture
[2] = test system: Escherichia coli; test: microbe, parasite or virus in culture; remark: listed apart in the source
[3] = test system: H4; test: Luminescence Cell-Based Dose Response HTS to Identify Activators of 5'UTR Stem-Loop Driven Prion Protein mRNA Translation in H4 Neuroglioblastoma Cells. [Related pubchem assays: 1829 (Project Summary), 1814 (Primary HTS)]; format: functional; settings: Homo sapiens
[4] = Luminescence Cell-Based Dose Response HTS to Identify Activators of Luciferase Translation or Activity in H4 […] Cells. [Related pubchem assays: 1829 (Project Summary), 1814 (Primary HTS)]; format: functional
[5] = biological target: Beta-2 adrenergic receptor (Homo sapiens, UniProt P07550); test: beta2AR agonists driving receptor internalization, dose response, cell-based, FAP fluorogen, flow cytometry, cherry pick 1 (AID 588763); format: functional
[6] = cytotoxicity in HMLE control line with eGFP shRNA, dose response, counter-screen for HMLE_sh_ECad selective toxicity project, cell-based, HMLE_sh_eGFP, luminescence (AID 463074); format: functional, Homo sapiens;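 also: HMLE human mammary epithelial cells expressing control shRNA against eGFP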
[7] = Luminescence Cell-Based Dose Retest to Confirm Inhibitors of Cancer Stem Cells. [Related pubchem assays (depositor defined):AID2717, AID2721]; format: functional; settings: Homo sapiens
[8] = biological target: 5-hydroxytryptamine receptor 5A (Homo sapiens, UniProt P47898); test: Counterscreen for agonists of OPRM1-OPRD1 heterodimerization: luminescence-based cell-based high throughput dose response assay to identify agonists of 5-hydroxytryptamine (serotonin) 5A receptor (HTR5A). [Related pubchem assays (depositor defined):AID504326, AID504355, AID504692, AID504904, AID504905]; format: functional
[9] = biological target: Mu-type opioid receptor (Homo sapiens, UniProt P35372); test: (§1) Counterscreen for agonists of heterodimerization of the mu 1 (OPRM1) and delta 1 (OPRD1) opioid receptors: Luminescence-based cell-based high throughput dose response assay to identify agonists of OPRM1 homodimerization.; format: functional
[10] = biological target: Delta-type opioid receptor (Homo sapiens, UniProt P41143); test: as §1, with “of OPRD1” for “of OPRM1”, “homodimerization. [Related pubchem assays (depositor defined):AID504326, AID504355, AID504692, AID504904, AID504905]” for “homodimerization.”; format: functional
[11] = test system: Vero; test: cells; format: functional, cell-based; settings: Chlorocebus sabaeus
[12] = biological target: T1, Microphthalmia-associated transcription factor (Homo sapiens, UniProt O75030); test: TRPM1 promoter luciferase signal decrease, dose response, MITF inhibitor project, cell-based, SK-MEL-5, cherry-picked, set 3 (AID 493073); format: functional
T1 sequence (O75030 whole entry): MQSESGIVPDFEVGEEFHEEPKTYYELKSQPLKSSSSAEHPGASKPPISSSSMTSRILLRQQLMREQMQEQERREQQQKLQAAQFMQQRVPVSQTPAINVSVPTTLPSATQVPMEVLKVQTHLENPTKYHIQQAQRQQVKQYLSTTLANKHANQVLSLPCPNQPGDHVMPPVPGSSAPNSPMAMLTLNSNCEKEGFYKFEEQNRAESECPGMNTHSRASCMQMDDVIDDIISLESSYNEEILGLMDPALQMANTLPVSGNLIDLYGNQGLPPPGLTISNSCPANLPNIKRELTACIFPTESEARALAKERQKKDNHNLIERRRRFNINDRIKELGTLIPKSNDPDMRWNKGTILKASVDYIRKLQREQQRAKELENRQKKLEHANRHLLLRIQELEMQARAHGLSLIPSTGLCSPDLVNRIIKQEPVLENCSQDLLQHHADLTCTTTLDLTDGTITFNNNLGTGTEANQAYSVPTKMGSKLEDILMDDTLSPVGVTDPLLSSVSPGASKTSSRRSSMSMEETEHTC

[13] = test system: Vero; test: cells; format: functional; settings: Chlorocebus sabaeus
[14] = biological target: Type-1 angiotensin II receptor (Homo sapiens, UniProt P30556); test: AT1 receptor antagonists, dose response, selectivity assay for APJ receptor antagonist project, cell-based, uHTS hits (AID 463214); format: functional;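 also: antagonist potency against angiotensin II stimulated AT1 response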
[15] = biological target: Beta-galactosidase (Escherichia coli, UniProt Q8VNN2); test: PubChem AID 485352; format: functional
[16] = biological target: Serine/threonine-protein phosphatase (Candida dubliniensis (strain CD36 / CBS 7987 / NCPF 3949 / NRRLY-17841) (Yeast), UniProt B9W6M3); test: calcineurin pathway inhibitors in yeast reporter, dose response, S. cerevisiae, CDRE-lacZ, luminescence, secondary (AID 2388); format: functional, cell-based;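 also: yeast reporter cells carrying a calcineurin-responsive lacZ construct stimulated with calcium chloride; luminescent beta-galactosidase reporter signal in whole cells rather than isolated phosphatase activity; potency for inhibition where a drop in reporter signal means calcineurin blockade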
[17] = C. albicans growth with fluconazole, confirmation, fluorescence, retest (AID 2467); format: functional, cell-based
[18] = biological target: ATP-dependent molecular chaperone HSP82 (Candida albicans (strain WO-1) (Yeast), UniProt C4YTQ8); test: loss of DOC-induced GRE-beta-galactosidase reporter signal, dose response, Hsp90 inhibitor project, S. cerevisiae, luminescence (AID 2400); format: functional, cell-based;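 also: beta-galactosidase luminescence from glucocorticoid response element reporter as proxy for Hsp90 function; inhibitor potency where signal loss means Hsp90 inhibition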
[19] = biological target: T2, Probable nicotinate-nucleotide adenylyltransferase (Staphylococcus aureus (strain N315), UniProt P65502); format: functional, Staphylococcus aureus subsp. aureus N315;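 as to IC50 Mean: confirmatory dose-response retesting of NadD inhibitor hits first found in an ultra-high-throughput screen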
[20] = NIH-3T3 fibroblast cytotoxicity, dose response, cytotoxicity control, cell-based, fluorescence, Alamar Blue, secondary assay (AID 2327); format: functional;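 also: NIH-3T3 mouse fibroblasts cultured with fluconazole at 8 µg/mL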
[21] = biological target: T2, Probable nicotinate-nucleotide adenylyltransferase; format: functional, Staphylococcus aureus subsp. aureus N315; settings: read-out: IC50_Mean
[22] = test system: HEK293; test: NOD1 signaling inhibitors, primary screen, cell-based, luminescence, uHTS (AID 1578); format: functional; settings: Homo sapiens
[23] = test system: HEK293; test: cells; format: functional, cell-based; settings: Homo sapiens
[24] = test system: HEK293; test: cells; format: functional, cell-based; settings: Homo sapiens; remark: listed apart in the source
[25] = biological target: Genome polyprotein (dengue virus type 2, UniProt P29990); test: Dengue-2 NS5 methyltransferase inhibitors, primary screen, biochemical, confirmation dose response (AID 588689); format: functional
[26] = biological target: Photoreceptor-specific nuclear receptor (Homo sapiens, UniProt Q9Y5X4); format: functional, cell-based;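 also: CHO-S cells with Gal4-NCOR and VP16-NR2E3 two-hybrid luciferase reporter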
[27] = test system: Vero; test: Vero cell cytotoxicity, cytotoxicity control for flavivirus capping enzyme inhibitors (AID 588742); format: functional; settings: Chlorocebus sabaeus
[28] = test system: HEK293; test: NOD2 signaling inhibitors in MDP-stimulated cells, cell-based, uHTS, luminescence (AID 2001); format: functional; settings: Homo sapiens
[29] = biological target: T3, Short transient receptor potential channel 4 (Mus musculus, UniProt Q9QUQ5); test: mouse TRPC4 channel activators, dose response, cell-based, HEK293 TRPC4/mu-opioid, Fluo-4 calcium (AID 434937); format: functional
T3 sequence (Q9QUQ5 whole entry): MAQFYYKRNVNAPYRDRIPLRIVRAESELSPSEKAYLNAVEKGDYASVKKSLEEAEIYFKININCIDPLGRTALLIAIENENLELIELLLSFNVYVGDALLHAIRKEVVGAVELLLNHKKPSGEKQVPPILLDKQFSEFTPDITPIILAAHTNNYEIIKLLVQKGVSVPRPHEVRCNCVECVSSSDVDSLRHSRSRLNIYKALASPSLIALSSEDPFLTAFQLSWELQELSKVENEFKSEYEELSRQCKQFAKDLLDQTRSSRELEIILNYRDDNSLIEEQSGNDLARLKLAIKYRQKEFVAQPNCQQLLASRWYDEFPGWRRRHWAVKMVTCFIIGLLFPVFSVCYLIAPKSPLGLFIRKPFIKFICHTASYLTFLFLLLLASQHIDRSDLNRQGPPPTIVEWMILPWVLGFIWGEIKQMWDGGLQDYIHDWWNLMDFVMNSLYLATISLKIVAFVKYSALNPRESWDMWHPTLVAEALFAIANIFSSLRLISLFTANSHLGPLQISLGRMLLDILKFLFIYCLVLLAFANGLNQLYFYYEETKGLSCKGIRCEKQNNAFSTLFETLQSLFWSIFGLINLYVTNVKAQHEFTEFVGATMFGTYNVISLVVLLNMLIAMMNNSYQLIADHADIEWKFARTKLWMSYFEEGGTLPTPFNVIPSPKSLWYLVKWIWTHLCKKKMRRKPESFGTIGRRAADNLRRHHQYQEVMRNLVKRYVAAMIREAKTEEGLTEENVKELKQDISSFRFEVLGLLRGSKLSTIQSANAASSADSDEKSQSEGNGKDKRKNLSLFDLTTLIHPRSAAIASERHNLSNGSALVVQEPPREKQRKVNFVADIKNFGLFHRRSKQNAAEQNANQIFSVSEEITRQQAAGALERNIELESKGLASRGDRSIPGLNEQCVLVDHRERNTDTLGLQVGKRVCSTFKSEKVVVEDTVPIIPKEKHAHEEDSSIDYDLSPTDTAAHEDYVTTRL

[30] = biological target: Voltage-gated inwardly rectifying potassium channel KCNH2 (Homo sapiens, UniProt Q12809); settings: Potency;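 also: confirmatory quantitative high-throughput screen measuring inhibition of hERG channel activity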
[31] = cytotoxicity in HEK-293T NF-kB-Luc cells, dose response, cytotoxicity control for B/T-cell NF-kB inhibitor project, cell-based, uHTS hits (AID 489019); format: functional;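 also: IC50 reflects cytotoxicity as loss of cell viability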
[32] = test system: Jurkat; test: antigen receptor-induced NF-kB inhibitors, dose response, Jurkat, luciferase reporter, luminescence, B- and T-cell (AID 489004); format: functional, cell-based; settings: Homo sapiens;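 also: NF-kB luciferase reporter Jurkat cells stimulated with PMA plus ionomycin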
[33] = test system: HEK293; test: cells; settings: Homo sapiens
[34] = test system: HEK293; test: cells; settings: Homo sapiens; remark: listed apart in the source
[35] = biological target: Heat shock protein HSP 90-alpha (Homo sapiens, UniProt P07900); format: functional, organism-based
[36] = test system: INS1; test: beta cell apoptosis inhibitors, cytokine rescue, dose response, luminescence, retest (AID 449756); format: functional, cell-based; settings: Rattus norvegicus;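 also: cell death triggered by IL-1 beta plus TNF-alpha plus IFN-gamma mixture; protective hits raise ATP signal compared with cytokine alone wells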
[37] = biological target: Dual specificity tyrosine-phosphorylation-regulated kinase 1A (Rattus norvegicus, UniProt Q63470); format: biochemical, Homo sapiens

T2 sequence (P65502 whole entry): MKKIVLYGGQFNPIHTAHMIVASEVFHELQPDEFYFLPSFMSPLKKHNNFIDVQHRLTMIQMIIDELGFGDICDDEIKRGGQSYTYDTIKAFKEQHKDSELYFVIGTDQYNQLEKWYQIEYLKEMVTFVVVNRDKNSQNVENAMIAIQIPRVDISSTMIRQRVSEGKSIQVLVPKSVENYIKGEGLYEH
Delta-type opioid receptor, sequence (P41143 whole entry): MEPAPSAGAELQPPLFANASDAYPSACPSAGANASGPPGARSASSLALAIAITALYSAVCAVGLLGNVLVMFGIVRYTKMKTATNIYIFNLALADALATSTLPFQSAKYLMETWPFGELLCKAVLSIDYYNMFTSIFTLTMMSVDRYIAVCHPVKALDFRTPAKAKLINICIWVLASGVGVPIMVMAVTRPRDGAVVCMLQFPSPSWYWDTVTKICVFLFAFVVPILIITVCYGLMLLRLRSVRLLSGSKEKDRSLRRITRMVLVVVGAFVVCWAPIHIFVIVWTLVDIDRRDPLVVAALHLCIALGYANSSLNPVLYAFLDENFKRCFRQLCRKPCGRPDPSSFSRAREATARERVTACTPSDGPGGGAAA
5-hydroxytryptamine receptor 5A, sequence (P47898 whole entry): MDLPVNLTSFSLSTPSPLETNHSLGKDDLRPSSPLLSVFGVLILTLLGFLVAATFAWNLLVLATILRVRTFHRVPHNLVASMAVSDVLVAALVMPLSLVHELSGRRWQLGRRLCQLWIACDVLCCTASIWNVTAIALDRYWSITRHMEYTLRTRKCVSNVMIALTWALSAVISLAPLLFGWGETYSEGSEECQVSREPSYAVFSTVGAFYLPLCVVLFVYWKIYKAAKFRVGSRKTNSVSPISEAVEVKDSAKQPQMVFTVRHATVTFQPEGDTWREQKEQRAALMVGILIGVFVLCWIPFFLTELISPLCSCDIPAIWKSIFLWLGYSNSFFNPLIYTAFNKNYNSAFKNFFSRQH
ATP-dependent molecular chaperone HSP82, sequence (C4YTQ8 whole entry): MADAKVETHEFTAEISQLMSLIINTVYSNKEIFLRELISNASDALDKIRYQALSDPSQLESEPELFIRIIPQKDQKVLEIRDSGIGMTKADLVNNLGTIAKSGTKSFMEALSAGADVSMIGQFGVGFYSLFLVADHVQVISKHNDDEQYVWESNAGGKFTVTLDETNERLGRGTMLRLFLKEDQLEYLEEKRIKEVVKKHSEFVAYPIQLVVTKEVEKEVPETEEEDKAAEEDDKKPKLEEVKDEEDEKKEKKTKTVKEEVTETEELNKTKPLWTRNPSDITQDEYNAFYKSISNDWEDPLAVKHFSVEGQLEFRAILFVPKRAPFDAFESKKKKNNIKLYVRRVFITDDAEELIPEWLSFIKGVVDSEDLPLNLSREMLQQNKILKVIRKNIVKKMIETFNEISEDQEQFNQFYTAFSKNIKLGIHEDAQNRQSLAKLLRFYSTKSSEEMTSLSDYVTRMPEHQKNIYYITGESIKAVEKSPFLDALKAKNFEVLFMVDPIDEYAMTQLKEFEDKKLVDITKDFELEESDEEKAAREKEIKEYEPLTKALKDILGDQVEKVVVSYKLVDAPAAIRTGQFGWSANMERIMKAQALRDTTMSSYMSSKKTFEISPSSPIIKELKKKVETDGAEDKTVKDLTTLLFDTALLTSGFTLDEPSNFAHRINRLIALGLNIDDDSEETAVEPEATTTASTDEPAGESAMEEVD
Mu-type opioid receptor, sequence (P35372 whole entry): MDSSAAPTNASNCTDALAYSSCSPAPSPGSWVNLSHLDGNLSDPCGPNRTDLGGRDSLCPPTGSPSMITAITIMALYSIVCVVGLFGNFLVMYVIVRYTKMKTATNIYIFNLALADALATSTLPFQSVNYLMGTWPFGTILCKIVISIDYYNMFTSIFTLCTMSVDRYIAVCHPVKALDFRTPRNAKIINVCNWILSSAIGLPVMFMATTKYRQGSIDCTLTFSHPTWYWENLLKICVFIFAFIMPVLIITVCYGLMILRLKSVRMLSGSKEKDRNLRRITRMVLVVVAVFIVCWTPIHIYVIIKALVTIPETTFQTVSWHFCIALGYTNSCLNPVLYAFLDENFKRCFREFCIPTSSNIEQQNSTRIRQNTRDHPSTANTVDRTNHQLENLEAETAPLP
Beta-2 adrenergic receptor, sequence (P07550 whole entry): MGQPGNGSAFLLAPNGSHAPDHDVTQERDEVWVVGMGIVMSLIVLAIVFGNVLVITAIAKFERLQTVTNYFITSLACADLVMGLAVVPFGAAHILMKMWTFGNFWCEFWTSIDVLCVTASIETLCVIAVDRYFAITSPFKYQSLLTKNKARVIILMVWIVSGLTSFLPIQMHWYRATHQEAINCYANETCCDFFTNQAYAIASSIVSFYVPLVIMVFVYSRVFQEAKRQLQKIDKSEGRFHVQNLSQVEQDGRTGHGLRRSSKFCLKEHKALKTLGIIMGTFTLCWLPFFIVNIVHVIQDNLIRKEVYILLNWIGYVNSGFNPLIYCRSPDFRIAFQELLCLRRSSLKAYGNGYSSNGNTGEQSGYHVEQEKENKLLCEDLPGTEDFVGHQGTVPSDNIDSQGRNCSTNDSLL
Voltage-gated inwardly rectifying potassium channel KCNH2, sequence (Q12809 whole entry): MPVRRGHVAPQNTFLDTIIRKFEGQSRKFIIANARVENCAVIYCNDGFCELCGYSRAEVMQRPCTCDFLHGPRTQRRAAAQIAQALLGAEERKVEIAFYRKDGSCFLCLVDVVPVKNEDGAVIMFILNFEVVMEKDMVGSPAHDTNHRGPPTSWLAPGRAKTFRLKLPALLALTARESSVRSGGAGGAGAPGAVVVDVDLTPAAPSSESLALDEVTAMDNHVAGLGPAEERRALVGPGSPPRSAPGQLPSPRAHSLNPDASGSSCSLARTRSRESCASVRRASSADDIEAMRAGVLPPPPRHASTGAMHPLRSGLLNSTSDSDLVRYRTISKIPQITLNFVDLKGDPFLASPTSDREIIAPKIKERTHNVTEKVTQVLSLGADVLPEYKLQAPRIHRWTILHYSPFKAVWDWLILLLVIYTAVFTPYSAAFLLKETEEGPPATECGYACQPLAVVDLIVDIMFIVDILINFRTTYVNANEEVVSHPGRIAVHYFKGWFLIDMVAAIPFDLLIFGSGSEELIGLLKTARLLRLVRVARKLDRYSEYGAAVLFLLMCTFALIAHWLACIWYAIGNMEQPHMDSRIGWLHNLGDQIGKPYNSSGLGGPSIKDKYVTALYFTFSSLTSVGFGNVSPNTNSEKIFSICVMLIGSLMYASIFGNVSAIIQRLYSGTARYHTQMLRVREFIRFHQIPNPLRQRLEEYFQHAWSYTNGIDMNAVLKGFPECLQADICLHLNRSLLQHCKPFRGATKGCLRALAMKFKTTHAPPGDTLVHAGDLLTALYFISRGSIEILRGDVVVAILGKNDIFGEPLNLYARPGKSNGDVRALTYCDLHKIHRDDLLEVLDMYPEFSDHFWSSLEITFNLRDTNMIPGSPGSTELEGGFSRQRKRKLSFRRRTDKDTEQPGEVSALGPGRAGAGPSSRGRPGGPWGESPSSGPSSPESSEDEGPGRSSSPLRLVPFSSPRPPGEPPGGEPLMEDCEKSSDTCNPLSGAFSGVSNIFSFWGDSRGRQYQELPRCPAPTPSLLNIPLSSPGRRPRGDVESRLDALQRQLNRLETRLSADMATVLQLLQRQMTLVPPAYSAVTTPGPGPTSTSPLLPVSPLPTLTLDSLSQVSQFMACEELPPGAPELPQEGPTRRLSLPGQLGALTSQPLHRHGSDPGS
Serine/threonine-protein phosphatase, sequence (B9W6M3 whole entry): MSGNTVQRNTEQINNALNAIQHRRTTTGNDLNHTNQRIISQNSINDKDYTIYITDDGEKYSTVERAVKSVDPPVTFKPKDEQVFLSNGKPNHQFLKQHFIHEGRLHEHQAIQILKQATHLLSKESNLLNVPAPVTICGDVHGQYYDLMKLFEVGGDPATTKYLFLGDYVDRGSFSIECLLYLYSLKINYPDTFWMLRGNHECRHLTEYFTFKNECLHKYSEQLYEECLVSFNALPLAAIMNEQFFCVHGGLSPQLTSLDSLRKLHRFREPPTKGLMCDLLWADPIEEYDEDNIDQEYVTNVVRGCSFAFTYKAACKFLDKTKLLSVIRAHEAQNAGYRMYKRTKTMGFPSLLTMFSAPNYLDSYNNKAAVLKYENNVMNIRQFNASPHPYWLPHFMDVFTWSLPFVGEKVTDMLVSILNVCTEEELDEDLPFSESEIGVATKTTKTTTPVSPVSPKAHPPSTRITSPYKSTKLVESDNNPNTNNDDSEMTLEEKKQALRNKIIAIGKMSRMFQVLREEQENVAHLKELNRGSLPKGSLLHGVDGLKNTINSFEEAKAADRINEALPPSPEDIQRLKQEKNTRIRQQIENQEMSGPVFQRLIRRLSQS
Photoreceptor-specific nuclear receptor, sequence (Q9Y5X4 whole entry, the tested form may be a part): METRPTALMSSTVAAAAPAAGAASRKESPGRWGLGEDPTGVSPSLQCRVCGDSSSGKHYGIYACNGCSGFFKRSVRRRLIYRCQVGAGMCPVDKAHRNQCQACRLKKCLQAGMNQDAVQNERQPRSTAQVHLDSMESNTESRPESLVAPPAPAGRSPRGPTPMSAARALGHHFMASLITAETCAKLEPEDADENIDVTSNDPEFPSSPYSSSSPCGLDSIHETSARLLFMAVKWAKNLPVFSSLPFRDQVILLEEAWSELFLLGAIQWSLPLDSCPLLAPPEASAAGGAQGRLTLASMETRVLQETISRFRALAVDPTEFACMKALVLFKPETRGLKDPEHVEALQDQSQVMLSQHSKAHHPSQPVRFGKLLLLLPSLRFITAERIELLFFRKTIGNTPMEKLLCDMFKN
Type-1 angiotensin II receptor, sequence (P30556 whole entry): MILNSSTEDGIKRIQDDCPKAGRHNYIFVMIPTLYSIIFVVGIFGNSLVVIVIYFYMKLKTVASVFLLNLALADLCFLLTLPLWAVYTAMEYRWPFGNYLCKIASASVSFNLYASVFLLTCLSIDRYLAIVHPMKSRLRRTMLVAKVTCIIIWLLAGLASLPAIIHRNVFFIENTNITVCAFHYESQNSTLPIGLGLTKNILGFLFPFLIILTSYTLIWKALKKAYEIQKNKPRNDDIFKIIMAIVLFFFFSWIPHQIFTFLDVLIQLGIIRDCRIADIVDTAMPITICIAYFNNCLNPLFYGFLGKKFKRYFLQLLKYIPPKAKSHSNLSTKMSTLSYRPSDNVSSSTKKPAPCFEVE

CCCCN(C)CCn1c(=S)[nH]c2ncccc2c1=O
AC50 [1]: 29.7 µM (active)

Cc1ccc(Cn2nc(C)c(NC(=O)c3cc(C)no3)c2C)cc1
AC50 [2]: > 380 µM (inactive)

O=C(C[C@H]1C[C@H](C(=O)N2CCOCC2)[C@@]2(CCC3CCCC3)c3[nH]c4cc(-c5ccco5)ccc4c3CCN2C1=O)NCCCn1ccnc1
AC50 [2]: 59.9 µM (active)

COc1ccc(S(=O)(=O)N2CCCC(C(=O)Nc3ccc(NC(=O)c4ccccn4)cc3)C2)cc1 (stereo not drawn)
EC50 [3]: 5.33 µM (active) | EC50 [4]: > 120 µM (not active) | EC50 [5]: 0.0809 µM (active)

O=C(NCCc1ccc(Cl)cc1Cl)c1cc([N+](=O)[O-])cnc1O
AC50 [6]: 61.9 µM (active) | AC50 [7]: 4.14 µM (active)

COc1ccc(C2CC(c3ccc(OC)cc3)n3nc(NC(=O)c4cccs4)nc3N2)cc1 (stereo not drawn)
EC50 [8]: > 92.5 µM (inactive) | EC50 [9]: > 92.5 µM (inactive) | EC50 [10]: > 92.5 µM (inactive)

N#C/C(=C\C=C\c1ccccc1[N+](=O)[O-])C(=O)NCc1ccccc1
EC50 [3]: > 120 µM (not active) | IC50 [11]: > 25 µM (active) | AC50 [12]: 14.7 µM (active) | EC50 [4]: > 120 µM (not active) | CC50 [13]: 15.3 µM (active)

O=C(CNS(=O)(=O)c1ccccc1)OCC(=O)c1cccc([N+](=O)[O-])c1
IC50 [14]: 38.1 µM (not active) | EC50 [15]: > 40 µM (inactive)

CCN(Cc1ccccc1)S(=O)(=O)c1ccc(C(=O)Nc2nnc(-c3ccccc3OC)o2)cc1
EC50 [16]: > 180 µM (inactive) | EC50 [17]: 0.468 µM (active) | EC50 [18]: 19.9 µM (active) | IC50 [19]: 8.19 µM (active) | EC50 [20]: 39.3 µM (active) | IC50 [21]: 56.5 µM (active)

CC(C)c1ccc(-c2csc(NC(=O)c3cccs3)c2C(=O)O)cc1
EC50 [22]: 8.7 µM (active) | IC50 [23]: > 20 µM (inactive) | IC50 [24]: > 20 µM (inactive) | IC50 [25]: 39.9 µM (active) | IC50 [26]: 6.83 µM (active) | CC50 [27]: > 40 µM (active) | IC50 [28]: 9.22 µM (active)

CCOC(=O)c1ccc(NC(=O)Cc2coc3cc4c(cc23)CCC4)cc1
EC50 [5]: 7.53 µM (active)

Cc1ccc(-n2cc(CNC(C)c3cnn(C)c3)c(-c3ccc(F)cc3)n2)cc1 (stereo not drawn)
EC50 [8]: > 92.5 µM (inactive) | EC50 [9]: 2.42 µM (active) | EC50 [10]: 37.3 µM (inactive) | EC50 [29]: 1.88 µM (active)

CCOC(=O)c1c(-c2cccc3ccccc23)csc1NC(=O)C1C2CCC(O2)C1C(=O)O (stereo not drawn)
IC50 [11]: > 25 µM (active)

NC1(C(=O)O)CC1
AC50 [30]: 31.6 µM (inconclusive)

CCOC(=O)C1=C(C)NC(C)=C(C(=O)OC)C1c1cccc(Cl)c1Cl (stereo not drawn) [FELODIPINE]
AC50 [30]: 20 µM (inconclusive)

O=C(Nc1nc(-c2ccc(F)c(F)c2)cs1)c1ccc(OCC2CCCO2)cc1 (stereo not drawn)
IC50 [31]: > 80 µM (inactive) | IC50 [32]: > 80 µM (inactive)

NC(=O)CC(NC(=O)Cc1cccc2ccccc12)c1ccc(NCCOc2ccccc2)c([N+](=O)[O-])c1 (stereo not drawn)
AC50 [6]: 22.9 µM (active) | AC50 [7]: 147 µM (active)

C=CCNc1sc(C(=O)c2ccccc2)c(N)c1-c1nc2ccccc2s1
EC50 [33]: > 59.7 µM (inactive) | EC50 [34]: > 59.7 µM (inactive)

C=CCc1c(C)c(C#N)c2nc3ccccc3n2c1NCCN(C)C
EC50 [16]: > 180 µM (inactive) | EC50 [17]: 1.27 µM (active) | EC50 [18]: > 150 µM (inactive) | EC50 [20]: > 160 µM (inactive) | AC50 [35]: 4.45 µM (active)

C=CCc1c(C)nc(C)nc1N/N=C/c1ccc(N(C)C)cc1
AC50 [1]: 26.4 µM (active) | AC50 [36]: 2.54 µM (active)

NC1=NC(=O)/C(=C\c2ccc(-c3ccc(Cl)cc3)o2)S1
AC50 [37]: 0.195 µM (active)

Source: ChEMBL document CHEMBL1201862, “PubChem BioAssay data set” (2004)
